Tests used:
APTK-induced tumors = test: subcutaneous APTK tumors in Pink1-/- mice, UA diet; assay type: in vivo
Source text: UA activates mitophagy in myocytes and hippocampal neurons via a Pink1/Parkin mediated stress-response (D'Amico et al., 2021). […] Moreover, UA stabilized Parkin protein expression (FIG. 4G). To functionally confirm the dependence of UA induced TSCM formation on Pink1/Parkin mediated mitophagy, the inventors activated Pink1^−/− T cells in the presence or absence of UA. Loss of Pink1 prevented the UA-induced lysosome formation as well as the decrease in mitochondrial content (FIG. 4H, I).
Tumors were minced and digested with Tumor & Tissue Dissociation Reagent (BD Horizon) for 30 min. The remaining organ pieces were filtered through a 70 μm cell strainer. Cells were then washed with PBS 1% BSA and 2 mM EDTA. Immune cells were enriched on a 30%/40%/75% Percoll gradient after a 1700 rpm 17 min centrifugation. Then, tumor immune filtrates or activated T cells were stained with Fixable Viability Dye-eF780 (65-0865-14; eBioscience), αCD45-FITC (30-F11; 11-0451-85; eBioscience), αCD11b-BV650 (M1/70; 56340; BD) α-CD11C-BV785 (HL3; 563735; BD), αLy6G-BV605 (53-6.7; 563005; BD), αLy6C-AF700 (HK1.4; 128024; Biolegend), αF4/80-PE (BM8; 12-4801-82, eBioscience), αPD-L1-PECy7 (MIH5; 25-5982-80, eBioscience); or with Fixable Viability Dye-eF780 (ebioscience), αCD45-BV786 (30-F11; 564225; BD), αCD4-BUV496 (GK1.5; 564667; BD), αCD8-BV605 (100744; Biolegend), αPD1-APC (J43; 17-9985-82; eBioscience), αTIM-3-PECy7 (RMT3-23; 119715; Biolegend), αCTLA4-PE (UC10-4B9; 106305; Biolegend) and αLag3-BV421 (C9B7W; 125221, Biolegend); or with Fixable Viability Dye-eF780 (eBioscience), αCD4-FITC (H129.19; 553650; BD), αCD8-APC (53-6.7; 17-0081-83; eBioscience), αCD44-AF400 (IM7; 103026; Biolegend), αCD62L-BV785 (MEL-14; 104440; Biolegend), αSca-1-PerCP-Cy5.5 (D7; 45-5981-82; eBioscience), αCD95-PE (Jo2; 554258; BD); or with Fixable Viability Dye-eF780 (eBioscience), αCD8-BV650 (53-6.7; 563234; BD), αCD4-BUV496 (GK1.5; 564667; BD), αCD127-APC (A7R34; 17-1271-82; eBioscience), αCD95-FITC (SA367H8; 152605; Biolegend), αCD44-AF400 (IM7; 103026; Biolegend), αCD62L-BV785 (MEL-14; 104440; Biolegend), αSca-1-PerCP-Cy5.5 (D7; 45-5981-82; eBioscience) followed by intracellular staining of αTCF1-PE (S33-966; 564217; BD), or PGC-1α (sc-518025; D-5; santa cruz), or αCyclinD1 (MA5-28534, DCS-6; Invitrogen) with transcription factor buffer set kit (BD Biosciences). To study cytokine expression, tumor immune infiltrates were stimulated ex vivo with 20 ng/ml PMA and 1 μg/ml Ionomycin (Sigma) for 3 h in T cell activation medium with Brefeldin A (Biolegend). For T cell in vitro activation experiments over several days, Brefeldin A was added to the medium for the last 3 hours.

[1] = test system: FoxP3+ T regulatory cells; conditions: cited from earlier work
OT-1 T cells = test: adoptive transfer of UA-treated OT-1 T cells, engraftment; assay type: in vivo, Rag1^−/− mice; conditions: seven days after transfer of T cells stimulated 48 h with UA (25 μM) vs DMSO
Source text: Adoptive cell transfer (ACT) represents the infusion of antigen-specific leukocytes with direct antitumor activity, yet identification, selection and expansion of lymphocyte subsets harboring optimal antitumor qualities remains one of the most crucial challenges (Rosenberg and Restifo, 2015). ACT benefits especially from minimally differentiated cells due to their improved survival and long-term potential to generate unexhausted effector cells (Luca Gattinoni et al; Mo et al., 2021; Roberto et al., 2015). In particular, CD8^+ T cells restricted in a stem-like state have been associated with enhanced tumor suppressive properties upon adoptive cell transfer (Enrico Lugli et al; Verma et al., 2021). […] The inventors cultured T cells from OT-1 donor mice (FIG. 3A) for 48 hours in the presence of UA or vehicle control, followed by adoptive transfer into immunodeficient Rag1^−/− mice. […] Moreover, consistent with an improved memory response, animals receiving UA-pretreated T cells contained less Tim3^HiPD1^Hi terminally exhausted CD8^+ T cells in the TME (FIG. 3I). Thus, UA augments immune-mediated antitumor memory upon adoptive cell transfer.
For adoptive cell transfer transfer, purified splenic T cell from OT1 mice were isolated and activated using aCD3/aCD28 stimulation beads for 48 h. […] Tumor growth was assessed as described above. […]

C. elegans = conditions: cited from earlier work
Nalm-6 cells = test: CD19-CAR T cell killing assay; assay type: cell-based, human; conditions: 24 h co-culture, CAR T cells generated with UA vs DMSO
Method: The cytotoxic activity of CD19-CAR T cells generated in presence or absence of UA was determined by CD19-positive Nalm-6 cell killing. Three days post transduction, CAR expression was determined and normalized to equal CAR T cell levels. Cells were washed twice and 0.5×10^4 CAR T cells were seeded into NutriT medium without cytokines, UA or DMSO. Nalm-6 cells were labeled using CellTrace™ Violet (CTV; Thermo Fisher Scientific, C34557) following manufacturer's instructions and 1×10^4 labeled Nalm-6 cells were added to the CAR T cells (0.5:1 effector to target ratio). The amount of dead target cells was determined via flow cytometry 24 h after start of killing.

[2] = test system: Th1/Th17 cell infiltration; conditions: model of EAE; cited from earlier work

SMILES: O=c1oc2cc(O)ccc2c2ccc(O)cc12 [UA, Urolithin A]
- tumor growth (tumor suppressive effect of UA) (APTK-induced tumors; Pink1 deletion, UA-containing vs control diet): abrogated the tumor suppressive effect of UA
- TCF-1 expression in CD8+ TIL (APTK-induced tumors; UA vs control diet): did not exhibit differences
- exhaustion markers in CD8+ TIL (APTK-induced tumors; UA vs control diet): did not exhibit differences
- ex vivo cytokine release of CD8+ TIL (APTK-induced tumors; UA vs control diet, PMA/Ionomycin): did not exhibit differences
- FoxP3+ T regulatory cells [1]: expanding
- number of engrafted (splenic) CD8+ T cells (OT-1 T cells): significantly higher
- lifespan (C. elegans): prolonged lifespan
- mitochondrial content (C. elegans): higher mitochondrial content
- CD19 CAR-T cell mediated killing of NALM-6 leukemia cells (Nalm-6 cells): did not have a negative impact
- Th1/Th17 cell infiltration [2]: blocking
